Test results as given in PubChem BioAssay (NCI).
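Assay format: 96-well plates, 48-hour exposure. TGI marks complete inhibition of growth.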

System: MOLT-4 leukemia
Assay: growth of human tumour cells (NCI), 48 h

Compound | TGI [µM]
Cc1c(N2CCOCC2)nc2ccc(Cl)cc2c1-c1ccccc1 | > 100
O=c1[nH]c(NCc2ccncc2)nc2nc[nH]c12 | > 100
O=CC(I)=C(c1ccccc1)c1ccccc1 | 72.3
c1c[nH]c(-c2cccc3nsnc23)c1 | > 100
Cn1c2ccccc2c2ccc3c(c21)C(=O)c1ccc2c4ccccc4n(C)c2c1C3=O | > 100
COc1ccc(C)cc1N1C(=O)C2ON(Cc3ccc(CC(N)=O)cc3)C(c3c4ccccc4c(Cl)c4ccccc34)C2C1=O (stereo not given) | > 100
COc1ccc(C2Oc3ccc(Cl)cc3C=C2[N+](=O)[O-])cc1 (stereo not given) | > 100
NS(=O)(=O)c1nnc(NC(=O)N(c2ccccc2)c2ccccc2)s1 | > 100
COC(=O)c1ccccc1C1CN=NC12Cc1c(ccc(C)c1C)C2=O (stereo not given) | > 100
CN(C)CCN(c1ccccn1)c1ccccn1 | > 100
O=C(O)c1nc2ccc(C(F)(F)F)cc2[nH]c1=O | > 100
CN(CCN1CCCC1)C1CCc2cc(Cl)c(Cl)cc2C1 (stereo not given) | > 100
CC(C)Oc1cccc(N2C(n3ccnc3)=Nc3ccncc3S2(=O)=O)c1 | 14.8
CO/N=C1\CC(NC(=O)C(F)(F)F)c2ccsc21 (stereo not given) | > 100
COC(=O)/C=C(\C)CC/C=C(\C)CCC1OC1(C)C (stereo not given) | 24.4
CC(C)NC(=O)OCc1c(COC(=O)NC(C)C)n(C)c2c1ccc1sccc12 | > 86.1
O=C(CC(NC(=O)C(F)(F)F)C(=O)O)OCc1ccccc1 (stereo not given) | > 100
CC(=O)NNc1nc(C)c(C(=O)NNC(=O)C(=O)Nc2ccc([N+](=O)[O-])cc2[N+](=O)[O-])s1 | > 100
CCOC(=O)C1C(c2ccc(Cl)cc2Cl)NC(c2ccc(C)cc2)C(C(=O)OC)S1(=O)=O (stereo not given) | > 100
CN(/N=C1\C(=O)Nc2ccccc21)c1ccccc1 | > 100

System: SF-295 CNS
Assay: growth of human tumour cells (NCI), 48 h

Compound | TGI [µM]
Cc1c(N2CCOCC2)nc2ccc(Cl)cc2c1-c1ccccc1 | > 100
O=c1[nH]c(NCc2ccncc2)nc2nc[nH]c12 | > 100
O=CC(I)=C(c1ccccc1)c1ccccc1 | 31.6
c1c[nH]c(-c2cccc3nsnc23)c1 | > 100
Cn1c2ccccc2c2ccc3c(c21)C(=O)c1ccc2c4ccccc4n(C)c2c1C3=O | > 100
COc1ccc(C)cc1N1C(=O)C2ON(Cc3ccc(CC(N)=O)cc3)C(c3c4ccccc4c(Cl)c4ccccc34)C2C1=O (stereo not given) | 69.1
COc1ccc(C2Oc3ccc(Cl)cc3C=C2[N+](=O)[O-])cc1 (stereo not given) | > 100
NS(=O)(=O)c1nnc(NC(=O)N(c2ccccc2)c2ccccc2)s1 | > 100
COC(=O)c1ccccc1C1CN=NC12Cc1c(ccc(C)c1C)C2=O (stereo not given) | > 100
CN(C)CCN(c1ccccn1)c1ccccn1 | > 100
O=C(O)c1nc2ccc(C(F)(F)F)cc2[nH]c1=O | > 100
CN(CCN1CCCC1)C1CCc2cc(Cl)c(Cl)cc2C1 (stereo not given) | 29.1
CC(C)Oc1cccc(N2C(n3ccnc3)=Nc3ccncc3S2(=O)=O)c1 | > 100
CO/N=C1\CC(NC(=O)C(F)(F)F)c2ccsc21 (stereo not given) | > 100
COC(=O)/C=C(\C)CC/C=C(\C)CCC1OC1(C)C (stereo not given) | 21.3
CC(C)NC(=O)OCc1c(COC(=O)NC(C)C)n(C)c2c1ccc1sccc12 | > 87.7
O=C(CC(NC(=O)C(F)(F)F)C(=O)O)OCc1ccccc1 (stereo not given) | > 100
CC(=O)NNc1nc(C)c(C(=O)NNC(=O)C(=O)Nc2ccc([N+](=O)[O-])cc2[N+](=O)[O-])s1 | > 100
CCOC(=O)C1C(c2ccc(Cl)cc2Cl)NC(c2ccc(C)cc2)C(C(=O)OC)S1(=O)=O (stereo not given) | > 100
CN(/N=C1\C(=O)Nc2ccccc21)c1ccccc1 | > 100

System: U251 CNS
Assay: growth of human tumour cells (NCI), 48 h

Compound | TGI [µM]
Cc1c(N2CCOCC2)nc2ccc(Cl)cc2c1-c1ccccc1 | > 100
O=c1[nH]c(NCc2ccncc2)nc2nc[nH]c12 | > 100
O=CC(I)=C(c1ccccc1)c1ccccc1 | 30.2
c1c[nH]c(-c2cccc3nsnc23)c1 | > 100
Cn1c2ccccc2c2ccc3c(c21)C(=O)c1ccc2c4ccccc4n(C)c2c1C3=O | > 100
COc1ccc(C)cc1N1C(=O)C2ON(Cc3ccc(CC(N)=O)cc3)C(c3c4ccccc4c(Cl)c4ccccc34)C2C1=O (stereo not given) | 60.4
COc1ccc(C2Oc3ccc(Cl)cc3C=C2[N+](=O)[O-])cc1 (stereo not given) | > 100
NS(=O)(=O)c1nnc(NC(=O)N(c2ccccc2)c2ccccc2)s1 | > 100
COC(=O)c1ccccc1C1CN=NC12Cc1c(ccc(C)c1C)C2=O (stereo not given) | > 100
CN(C)CCN(c1ccccn1)c1ccccn1 | > 100
O=C(O)c1nc2ccc(C(F)(F)F)cc2[nH]c1=O | > 100
CN(CCN1CCCC1)C1CCc2cc(Cl)c(Cl)cc2C1 (stereo not given) | 32.6
CC(C)Oc1cccc(N2C(n3ccnc3)=Nc3ccncc3S2(=O)=O)c1 | 28.8
CO/N=C1\CC(NC(=O)C(F)(F)F)c2ccsc21 (stereo not given) | > 100
COC(=O)/C=C(\C)CC/C=C(\C)CCC1OC1(C)C (stereo not given) | 22.5
CC(C)NC(=O)OCc1c(COC(=O)NC(C)C)n(C)c2c1ccc1sccc12 | > 60.8
O=C(CC(NC(=O)C(F)(F)F)C(=O)O)OCc1ccccc1 (stereo not given) | > 100
CC(=O)NNc1nc(C)c(C(=O)NNC(=O)C(=O)Nc2ccc([N+](=O)[O-])cc2[N+](=O)[O-])s1 | > 100
CCOC(=O)C1C(c2ccc(Cl)cc2Cl)NC(c2ccc(C)cc2)C(C(=O)OC)S1(=O)=O (stereo not given) | > 100
CN(/N=C1\C(=O)Nc2ccccc21)c1ccccc1 | > 100

System: UACC-257 melanoma
Assay: growth of human tumour cells (NCI), 48 h

Compound | TGI [µM]
Cc1c(N2CCOCC2)nc2ccc(Cl)cc2c1-c1ccccc1 | > 100
O=c1[nH]c(NCc2ccncc2)nc2nc[nH]c12 | > 100
O=CC(I)=C(c1ccccc1)c1ccccc1 | 42.3
c1c[nH]c(-c2cccc3nsnc23)c1 | > 100
Cn1c2ccccc2c2ccc3c(c21)C(=O)c1ccc2c4ccccc4n(C)c2c1C3=O | > 100
COc1ccc(C)cc1N1C(=O)C2ON(Cc3ccc(CC(N)=O)cc3)C(c3c4ccccc4c(Cl)c4ccccc34)C2C1=O (stereo not given) | 33.2
COc1ccc(C2Oc3ccc(Cl)cc3C=C2[N+](=O)[O-])cc1 (stereo not given) | > 100
NS(=O)(=O)c1nnc(NC(=O)N(c2ccccc2)c2ccccc2)s1 | > 100
COC(=O)c1ccccc1C1CN=NC12Cc1c(ccc(C)c1C)C2=O (stereo not given) | > 100
CN(C)CCN(c1ccccn1)c1ccccn1 | > 100
O=C(O)c1nc2ccc(C(F)(F)F)cc2[nH]c1=O | > 100
CN(CCN1CCCC1)C1CCc2cc(Cl)c(Cl)cc2C1 (stereo not given) | 32.4
CC(C)Oc1cccc(N2C(n3ccnc3)=Nc3ccncc3S2(=O)=O)c1 | 32
CO/N=C1\CC(NC(=O)C(F)(F)F)c2ccsc21 (stereo not given) | > 100
COC(=O)/C=C(\C)CC/C=C(\C)CCC1OC1(C)C (stereo not given) | 23.3
CC(C)NC(=O)OCc1c(COC(=O)NC(C)C)n(C)c2c1ccc1sccc12 | 39.5
O=C(CC(NC(=O)C(F)(F)F)C(=O)O)OCc1ccccc1 (stereo not given) | > 100
CC(=O)NNc1nc(C)c(C(=O)NNC(=O)C(=O)Nc2ccc([N+](=O)[O-])cc2[N+](=O)[O-])s1 | > 100
CCOC(=O)C1C(c2ccc(Cl)cc2Cl)NC(c2ccc(C)cc2)C(C(=O)OC)S1(=O)=O (stereo not given) | > 100
CN(/N=C1\C(=O)Nc2ccccc21)c1ccccc1 | > 100

System: UO-31 renal
Assay: growth of human tumour cells (NCI), 48 h

Compound | TGI [µM]
Cc1c(N2CCOCC2)nc2ccc(Cl)cc2c1-c1ccccc1 | > 100
O=c1[nH]c(NCc2ccncc2)nc2nc[nH]c12 | > 100
O=CC(I)=C(c1ccccc1)c1ccccc1 | 29.1
c1c[nH]c(-c2cccc3nsnc23)c1 | > 100
Cn1c2ccccc2c2ccc3c(c21)C(=O)c1ccc2c4ccccc4n(C)c2c1C3=O | > 100
COc1ccc(C)cc1N1C(=O)C2ON(Cc3ccc(CC(N)=O)cc3)C(c3c4ccccc4c(Cl)c4ccccc34)C2C1=O (stereo not given) | 48
COc1ccc(C2Oc3ccc(Cl)cc3C=C2[N+](=O)[O-])cc1 (stereo not given) | > 100
NS(=O)(=O)c1nnc(NC(=O)N(c2ccccc2)c2ccccc2)s1 | > 100
COC(=O)c1ccccc1C1CN=NC12Cc1c(ccc(C)c1C)C2=O (stereo not given) | > 100
CN(C)CCN(c1ccccn1)c1ccccn1 | > 100
O=C(O)c1nc2ccc(C(F)(F)F)cc2[nH]c1=O | > 100
CN(CCN1CCCC1)C1CCc2cc(Cl)c(Cl)cc2C1 (stereo not given) | 27.7
CC(C)Oc1cccc(N2C(n3ccnc3)=Nc3ccncc3S2(=O)=O)c1 | 38.3
CO/N=C1\CC(NC(=O)C(F)(F)F)c2ccsc21 (stereo not given) | > 100
COC(=O)/C=C(\C)CC/C=C(\C)CCC1OC1(C)C (stereo not given) | 20.8
CC(C)NC(=O)OCc1c(COC(=O)NC(C)C)n(C)c2c1ccc1sccc12 | 68.7
O=C(CC(NC(=O)C(F)(F)F)C(=O)O)OCc1ccccc1 (stereo not given) | > 100
CC(=O)NNc1nc(C)c(C(=O)NNC(=O)C(=O)Nc2ccc([N+](=O)[O-])cc2[N+](=O)[O-])s1 | > 100
CCOC(=O)C1C(c2ccc(Cl)cc2Cl)NC(c2ccc(C)cc2)C(C(=O)OC)S1(=O)=O (stereo not given) | > 100
CN(/N=C1\C(=O)Nc2ccccc21)c1ccccc1 | > 100
